Measurements reported in US4533655A, “Analgesic dipeptide amides and method of use and compositions thereof” (Sterling Drug Inc., priority 1982, dated 1985).

Assays:
[1] = tested on: guinea pig ileum longitudinal muscle (electrically induced twitch); test: Guinea pig ileum test; type: cell-based; settings: ratio of IC50 of reference Met^5-enkephalin to IC50 of test compound in same preparation, averaged (N=4); Met^5-enkephalin = 100
Procedure: Adult male guinea pigs (Charles River, Hartley strain) weighing 300-500 g. are decapitated, and the terminal ileum is exposed by reflecting the overlying cecum, severed at the ileocecal juncture, and removed while cutting the mesenteric attachments to avoid excessive traction on the tissue. The ileum (about 30 cm. in length) is transferred to a beaker containing warm modified Krebs-Henseleit solution (118 mM sodium chloride, 4.75 mM potassium chloride, 2.54 mM calcium chloride, 1.19 mM potassium dihydrogen phosphate, 1.2 mM magnesium sulfate, 25 mM sodium bicarbonate, 11 mM glucose, 20 μM choline chloride and 0.125 μM pyrilamine maleate). The terminal (aboral) portion (about 10 cm. in length) is discarded, and segments (3-4 cm. in length) are cut from the remainder and gently slid onto a glass rod (5-6 mm. in diameter) and arranged so that the mesenteric attachment is in a straight line. A cotton swab moistened in the solution is then carefully used to separate the longitudinal muscle from the underlying circular muscle. The longitudinal muscle and adhering myenteric plexus is then gently removed from the remaining tissue with forceps.
Strips of this prepared longitudinal muscle are mounted in a double-jacketed organ bath (5 ml.) under tension (1.0 g.), connected to isometric transducers (Grass FT 0.03), bathed in the modified Krebs-Henseleit solution described above, aerated with oxygen-carbon dioxide (95:5) and maintained at 37° C.
Stimulators (Grass S-44) are set to deliver repetitive monophasic square wave field stimulation (supramaximal voltage, 0.10 Hz., 0.25 msec. duration) through platinum ring electrodes at the top and bottom of the bath. Regular contractions of the muscle, which result from electrically-induced liberation of acetylcholine from postganglionic parasympathetic nerves, are recorded on a polygraph (Grass model 5). Following tissue equilibration (45-60 min.) and repeated washing (every 10 min.) an aqueous solution of a reference or test compound is added to the bath in a microliter volume (1.25-250 μl) and reductions in muscle twitch height are recorded. More compound can be added […] first washing the preparation.
From the results a half-mazimal inhibitory concentration (IC50) value for the compound is computed by regression analysis of a linear plot of logarithm of concentration against percent of inhibition of twitch height (probits). The ratio of the IC50 value of a reference compound to that of a test compound tested in the same preparation is the molar potency ratio. Usually four preparations are tested simultaneously by the same person (N=4), and the resulting four molar potency ratios are averaged.
The following results were obtained using the examples as test compounds and Met^5 -enkephalin as the reference compound.

[2] = tested on: rat; settings: rat tail flick, relative to morphine, cited from earlier work
[3] = tested on: Male Swiss-Webster mice; test: Mouse acetylcholine writhing test; type: in vivo; settings: 20 min, subcutaneous, acetylcholine 3.2 mg./kg. i.p. 20 min after dosing, 95% confidence limits in parentheses
Procedure: Male Swiss-Webster mice each weighing 18-24 g. are treated subcutaneously (10 ml./kg. injection volume) or orally with the test compound in an aqueous vehicle. Twenty minutes thereafter each mouse is injected intraperitoneally with acetylcholine (3.2 mg./kg.) in aqueous sodium chloride (0.9%). This dose of acetylcholine causes one or more characteristic writhes in the two minute period following injection in control mice which receive the aqueous vehicle not containing the test compound. […] Test compounds are screened at doses of 100 and 30 mg./kg. subcutaneously and 300 and 100 mg./kg. orally using 15 mice at each dose level. ED50 values for active compounds are estimated by probit analysis of quantal scores at four or more dose levels using 15 mice at each dose level.

[4] = tested on: guinea pig ileum; settings: cited from earlier work
[5] = tested on: mouse vas deferens; settings: cited from earlier work

Compound	Average Molar Potency Ratio [1]	ED50 [3]	other results
CCN(C(=O)[C@@H](N)Cc1ccc(O)cc1)[C@H](C)C(=O)NCCCc1ccccc1 [Example 4, L-tyrosyl-N^2-ethyl-N-(3-phenylpropyl)-D-alaninamide]	12		
C[C@@H](NC(=O)[C@@H](N)Cc1ccc(O)cc1)C(N)=O [H-Tyr-D-Ala-NH2]			times less potent than morphine, intravenously ([2]; intravenous): greater than 10 times; times less potent than morphine, intraventricularly ([2]; intraventricular): 200 times
C[C@H](C(=O)NCCCc1ccc(Cl)cc1)N(C)C(=O)[C@@H](N)Cc1ccc(O)cc1 [Example 5, L-tyrosyl-N^2-methyl-N-[3-(4-chlorophenyl)propyl]-D-alaninamide]	51		
CN[C@@H](Cc1ccc(O)cc1)C(=O)N(C)[C@H](C)C(=O)NCCCc1ccccc1 [Example 3, N-methyl-L-tyrosyl-N^2-methyl-N-(3-phenylpropyl)-D-alaninamide]	200	9.4 mg/kg	
C[C@@H](NC(=O)[C@@H](N)Cc1ccc(O)cc1)C(=O)NCCNCCc1ccccc1 [HTyrD-AlaNH(CH2)2 NH(CH2)2 Phenyl]			potency relative to Met-enkephaline [4]: < 1%; potency relative to Met-enkephaline [5]: < 1%
CN[C@@H](Cc1ccc(O)cc1)C(=O)N[C@H](C)C(=O)NCCCc1ccccc1 [Example 2, N-methyl-L-tyrosyl-N-(3-phenylpropyl)-D-alaninamide]	194	10 to 30 mg/kg	
C[C@H](C(=O)NCCCc1ccc(F)cc1)N(C)C(=O)[C@@H](N)Cc1ccc(O)cc1 [Example 7, L-tyrosyl-N^2-methyl-N-[3-(4-fluorophenyl)propyl]-D-alaninamide]	178		
Met^5 -enkephalin [reference compound]	100		
C[C@H](C(=O)NCCCc1ccccc1)N(C)C(=O)[C@@H](N)Cc1ccc(O)cc1 [Example 1, L-tyrosyl-N^2-methyl-N-(3-phenylpropyl)-D-alaninamide]	293	5.5 mg/kg	
C[C@H](C(=O)NCCCc1ccc(C(F)(F)F)cc1)N(C)C(=O)[C@@H](N)Cc1ccc(O)cc1 [Example 6, L-tyrosyl-N^2-methyl-N-[3-(4-trifluoromethylphenyl)propyl]-D-alaninamide]	13		
